Earlier results on one compound are cited in US20050084507A1, “Liquid preparations and surfactant/solvent systems” (priority 1999, published 2005).

The structures appear in SMILES notation. Values after ≈ are worked out from the molar mass of the structure shown.

`CCOC1Oc2ccc(OS(C)(=O)=O)cc2C1(C)C` (stereo not shown) [ethofumesate]: the solubility in water was 0.05 mg/mL (≈ 175 µM).
